Measurements published in US12110289B2, “Heterocyclic compounds, preparation methods and uses thereof” (InventisBio Co., Ltd., priority 2020, dated 2024).

How the values were obtained:
[1] = tested on: Lung cancer cell line NCI-H358 containing KRas G12C mutation; test: Assay for cell proliferation (Cell-titer Glo, 5 days); assay type: cell-based, human
Method in brief: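 NCI-H358 (KRas G12C) cells, 2000 per well, attached overnight at 37 °C, 5% CO2, then treated with compound for 5 days at 0.5% DMSO final. Proliferation measured by CellTiter-Glo luminescence after 10 min at RT.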

[2] = Rat PK study, single i.g. dose; assay type: in vivo; settings: female, SD, plasma, PO, 10 mg/kg
Method: The pharmacokinetic (PK) profile of compounds following single i.g in SD rat obtained from […] Laboratory Animal Co., LTD of Shanghai was determined. Three female rats of weight around 220 g were used. Compounds were prepared at 1 mg/ml with the formulation of 10% DMSO+10% solutol HS15+80% (10% HPβCD in water). Blood samples (0.2 mL) were collected at 0 h (pre-dose) and 0.25, 0.5, 1, 2, 4, 8, 24 h time points after administration of compounds at the dose of 10 mg/kg. The collected blood samples were centrifuged without delay and the plasma was separated and transferred into tubes before storage at -70° C. prior to analysis. Aliquots of the plasma unknowns, blank and calibration standards were placed in 1.5 mL tubes and mixed with acetonitrile/methanol (1/1, v/v) containing IS. After vortexing for 5 min, each sample was centrifuged at 14000 rpm at 4° C. for 10 min. The supernatant were injected into the LC-MS/MS system. […] Eluates were analyzed using an API4000 Q-Trap mass spectrometer with a TurboIonSpray interface. Chromatographic separation was done with a mobile phase composed of water with 0.1% formic acid (solution A) and acetonitrile with 0.1% formic acid (solution B). The mobile phase was delivered at a flow rate of 0.6 mL/min, using a stepwise gradient elution program. To improve the sensitivity of the test compound screening, a MRM method in positive electrospray ionization mode was employed. Mass spectrometry data was acquired and analyzed using AB Sciex Analyst version 1.6.2 software. The pharmacokinetic parameters were derived using standard noncompartmental methods with Phoenix WinNonLin Professional Version 8.1.

[3] = tested on: SW837 xenograft; test: Colorectal adenocarcinoma SW837 xenograft model, tumor volume; assay type: in vivo, BALB/c nude mice; settings: 30 mg/kg oral once daily vs AMG510 at 60 mg/kg; FIG. 1
Method: All the procedures related to animal handling, care and the treatment in this study were performed according to the guidelines approved by the Institutional Animal Care and Use Committee (IACUC) of SIPPER B&K following the guidance of the Association for Assessment and Accreditation of Laboratory Animal Care (AAALAC). At the time of routine monitoring, the animals were checked for any effects of tumor growth on normal behavior such as mobility, food and water consumption (by looking only), body weight gain/loss (body weights were measured twice weekly), eye/hair matting and any other abnormal effect. Death and observed clinical signs were recorded on the basis of the numbers of animals within each subset.
The NCI-H358, SW837, NCI-H2122 tumor cells were purchased from the American Type Culture Collection (ATCC). Cells were maintained in vitro as monolayer cultured in RPMI-1640 or DMEM medium supplemented with 10% fetal bovine serum, 50 IU/ml penicillin/streptomycin (GIBCO) at 37° C. in an atmosphere of 5% CO2 in air. The tumor cells were routinely sub cultured twice weekly by trypsin-EDTA treatment. The cells growing in an exponential growth phase were harvested and counted for tumor inoculation.
For tumor bearing models, female 6- to 8-week-old athymic BALB/c nude mice were used for human cancer cell lines. Each mouse was inoculated subcutaneously at the right flank with tumor cells (10×10^6) in 0.1 ml of PBS. The treatments were started when the average tumor size reached approximately 200-250 mm^3. Carboplatin, Cisplatin was injected twice a week by i.p. Vehicles and other test articles were given orally as a suspension by gavage once daily during the study or treatment period.
Tumor volume was calculated by measuring two perpendicular diameters using the following formula: (L×W 2)/2 in which L and W refer to the length and width tumor diameter, respectively. Results are expressed as mean and standard deviation of the mean.

- IC50 ([1]; Homo sapiens, NCI-H358, 120 h, NCI-H358, 5 days, Cell-titer Glo, read-out: IC50 (nM), Inhibition of NCI-H358 Cell Proliferation): 0.6 nM
- AUC(0-t) ([2]; read-out: Rat PO (10 mpk) AUC last): 3.8 µM·h
- Cmax ([2]; read-out: Rat PO (10 mpk) Cmax): 1060 nM
- bioavailability ([2]; read-out: Rat PO (10 mpk) F %): 54%
Compound: C=CC(=O)N1C[C@H](C)N(c2nc(=O)n(-c3c(C4CC4)ncnc3C3CC3)c3nc(-c4c(N)cccc4F)c(Cl)cc23)C[C@H]1C [Compound 126]
- potency in inhibiting KRAS G12C compared with corresponding isopropyl analogs [1]: better potency
- fold more potent: 2-amino-6-fluoro-phenyl compound vs. corresponding 2-fluoro-phenyl compound at R8 ([1]; NCI-H358 IC50 comparison): about 15 ×
- reducing tumor volume compared with AMG510 [3]: more effective than AMG510
